From patent US9120728B2, “Modulators of cortical dopaminergic- and NMDA-receptor-mediated glutamatergic neurotransmission” (INTEGRATIVE RESEARCH LABORATORIES SWEDEN AB, priority 2011, dated 2015)

Columns and labels:
[1] = test system: d-amphetamine pre-treated rats; assay: Reduction of amphetamine-induced hyper-locomotion; format: in vivo; conditions: Rattus norvegicus; rats pre-treated with d-amphetamine 1.5 mg/kg i.p.; test compound 0-100 μmol/kg s.c.; distance during last 45 minutes of one hour
Source text: The increase in activity after treatment with d-amphetamine is a standard model of hyperdopaminergia. In this model, dopaminergic neurotransmission is increased by systemic administration of d-amphetamine at a dose that is sufficiently high to produce a large increase in locomotor activity. The ability of a compound to antagonize this hyperactivity reflects anti-dopaminergic properties. Furthermore, antagonism of d-amphetamine induced hyperactivity is widely used as a standard assay of antipsychotic activity (see Psychopharmacology 4th Generation of progress Chapter 68, p 793-795).
(§1) Behavioural activity is measured using eight Digiscan activity monitors (RXYZM (16) TAO, Omnitech Electronics, Columbus, Ohio, USA), connected to an Omnitech Digiscan analyzer and an Apple Macintosh computer equipped with a digital interface board (NB DIO-24, National Instruments, USA). […]
(§2) Behavioural data from each activity monitor, representing the position (horizontal center of gravity and vertical activity) of the animal at each time, are recorded at a sampling frequency of 25 Hz and collected using a custom written LABView™ application. The data from each recording session are stored and analyzed with respect to distance traveled. […]
ED50 value for reduction of amphetamine-induced hyper-locomotion is calculated by curve fitting. […]

drug-naive rats = assay: Effects on spontaneous locomotion (locomotor activity in drug-naive rats); format: in vivo, rat; conditions: recorded for 60 minutes immediately after drug administration
Protocol: Prior art dopamine receptor antagonists are known to induce profound decrease in locomotor activity (catalepsy).
Behavioural activity is measured using eight Digiscan activity monitors (RXYZM (16) TAO, Omnitech Electronics, Columbus, Ohio, USA), connected to an Omnitech Digiscan analyzer and an Apple Macintosh computer equipped with a digital interface board (NB DIO-24, National Instruments, USA). Each activity monitor consists of a quadratic metal frame (W×L=40 cm×40 cm) equipped with photobeam sensors. During measurements of behavioural activity, a rat is put in a transparent acrylic cage (WxLxH, 40×40×30 cm) which in turn is placed in the activity monitor. Each activity monitor is equipped with three rows of infrared photobeam sensors, each row consisting of 16 sensors. Two rows are placed along the front and the side of the floor of the cage, at a 90° angle, and the third row is placed 10 cm above the floor to measure vertical activity. Photobeam sensors are spaced 2.5 cm apart. Each activity monitor is fitted in an identical sound and light attenuating box containing a weak house light and a fan.
The computer software is written using object oriented programming (LabVIEW®, National instruments, Austin, Tex., USA).
Behavioural data from each activity monitor, representing the position (horizontal center of gravity and vertical activity) of the animal at each time, are recorded at a sampling frequency of 25 Hz and collected using a custom written LABView™ application. The data from each recording session are stored and analyzed with respect to distance traveled. Each behavioural recording session lasts 60 min, starting approximately 4 min after the injection of test compound. Similar behavioural recording procedures are applied for drug-naïve and drug pre-treated rats. Rats pre-treated with d-amphetamine are given a dose of 1.5 mg/kg i.p. 10 min before the recording session in the activity monitor. Rats pre-treated with MK-801 are given a dose of 0.7 mg/kg i.p. 90 min before the recording session in the activity monitor. The results are presented as counts/60 minutes, or counts/30 minutes, in arbitrary length units. Statistical comparisons are carried out using Student's t-test against the control group. In MK-801 or amphetamine pre-treated animals, statistical comparisons are made against the MK801 or d-amphetamine controls, respectively.

MK-801 pre-treated rats = assay: Reduction of MK-801-induced hyper-locomotion; format: in vivo; conditions: Rattus norvegicus; MK-801 0.7 mg/kg i.p. 90 minutes before test compound; locomotor activity between 45 and 60 minutes after administration; 0-100 μmol/kg s.c.
Source text: Reduction of MK-801-Induced Hyper-Locomotion Another animal model of antipsychotic activity is based on administration of the glutamate antagonist MK-801. Glutamate antagonists (i.e. NMDA antagonists), can induce psychoses in man (see Psychopharmacology, 4th Generation of progress Chapter 101, p. 1205 and 1207) and induce behavioural aberrations in animals. Thus, the ability of a drug to affect schizophrenia and psychotic states can be measured using behavioural models based on experimentally-induced hypoglutamatergic states. In this study the NMDA antagonist MK-801 (0.7 mg/kg i.p.) was used to create a hypoglutamatergic state where the rats display abnormal, hyperactive behaviour.
as §1, §2

For `CCCNCCOc1cc(F)cc(S(C)(=O)=O)c1` [Example 1, N-[2-(3-fluoro-5-methylsulfonyl-phenoxy)ethyl]propan-1-amine], which ED50 [1] is on record?
The ED50 was 24 µmol/kg.

And the Locomotor activity (drug-naive rats; 3.7 μmol/kg)?
The Locomotor activity was 8049 counts/60 min.

What about the Locomotor activity (drug-naive rats; 11 μmol/kg) of the same compound?
Its Locomotor activity is 7325 counts/60 min.

What about the Locomotor activity (drug-naive rats; 33 μmol/kg) of the same compound?
Its Locomotor activity is 6025 counts/60 min.

What about the ED50 (MK-801 pre-treated rats) of the same compound?
The ED50 was 5.6 µmol/kg.
